According to patent US10457703B2, “Bile acid derivatives as FXR/TGR5 agonists and methods of use thereof” (ENANTA PHARMACEUTICALS, INC., priority 2015, dated 2019):

Molecular target: human FXR (NR1H4) (Homo sapiens (Human), UniProt Q96RI1)
Assay: Human FXR (NR1H4) Assay (Gal4 promoter driven luciferase reporter, Indigo Bioscience kit);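 as to Efficacy (%): 100% equals the efficacy of CDCA; efficacy normalized to CDCA set as 100%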
Type: cell-based
Conditions: for EC50: Human FXR (NR1H4) Assay, potency ranges; for Emax: read-out: Efficacy (%)
Procedure, shortened: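 CHO reporter cells expressing human FXR with an FXR-responsive luciferase reporter, treated with compound doses at 0.2% DMSO. Incubation lasted 22 h at 37 °C before luciferase detection reagent was added. Luminescence was then read.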

human FXR (NR1H4), sequence (Q96RI1 whole entry, the tested form may be a part): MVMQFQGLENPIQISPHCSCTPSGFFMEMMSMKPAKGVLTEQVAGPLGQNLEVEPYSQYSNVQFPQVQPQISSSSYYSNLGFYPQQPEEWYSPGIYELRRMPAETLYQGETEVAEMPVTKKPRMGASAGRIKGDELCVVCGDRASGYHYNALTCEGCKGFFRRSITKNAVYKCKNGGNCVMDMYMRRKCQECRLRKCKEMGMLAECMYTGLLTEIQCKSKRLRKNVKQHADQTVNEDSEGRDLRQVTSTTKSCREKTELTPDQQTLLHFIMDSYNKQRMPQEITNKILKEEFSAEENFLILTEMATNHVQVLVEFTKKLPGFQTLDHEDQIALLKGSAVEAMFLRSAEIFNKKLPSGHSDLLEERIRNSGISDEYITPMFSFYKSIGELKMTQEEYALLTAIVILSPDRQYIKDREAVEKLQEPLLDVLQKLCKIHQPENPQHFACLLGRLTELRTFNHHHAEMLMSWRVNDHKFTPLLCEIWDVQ

Row | SMILES | EC50 | Emax
1 | CC[C@H]1[C@@H](O)[C@@H]2[C@H](CC[C@]3(C)[C@@H]([C@H](C)CCOC(=O)N[C@@H](C)C4CC4)CC[C@@H]23)[C@@]2(C)CC[C@@H](O)C[C@@H]12 [Example 175] | 100 to 1000 nM | 210%
2 | CC[C@H]1[C@@H](O)[C@@H]2[C@H](CC[C@]3(C)[C@@H]([C@H](C)COC(=O)NS(=O)(=O)c4ccc(-n5cccn5)nc4)CC[C@@H]23)[C@@]2(C)CC[C@@H](O)C[C@@H]12 [Example 16] | < 100 nM | 187%
3 | CC[C@H]1[C@@H](O)[C@@H]2[C@H](CC[C@]3(C)[C@@H]([C@H](C)CCOC(=O)NS(=O)(=O)c4ccc(-c5ccccc5)s4)CC[C@@H]23)[C@@]2(C)CC[C@@H](O)C[C@@H]12 [Example 64] | 100 to 1000 nM | 281%
4 | CC[C@H]1[C@@H](O)[C@@H]2[C@H](CC[C@]3(C)[C@@H]([C@H](C)CCOC(=O)NC4CCS(=O)(=O)CC4)CC[C@@H]23)[C@@]2(C)CC[C@@H](O)C[C@@H]12 [Example 167] | 100 to 1000 nM | 321%
5 | CC[C@H]1[C@@H](O)[C@@H]2[C@H](CC[C@]3(C)[C@@H]([C@H](C)COC(=O)NS(=O)(=O)c4ccc(N5CCC5)nc4)CC[C@@H]23)[C@@]2(C)CC[C@@H](O)C[C@@H]12 [Example 44-c] | < 100 nM | 183%
6 | CC[C@H]1[C@@H](O)[C@@H]2[C@H](CC[C@]3(C)[C@@H]([C@H](C)COC(=O)NS(=O)(=O)c4ccc(N5CCC(C)(C)CC5)cc4)CC[C@@H]23)[C@@]2(C)CC[C@@H](O)C[C@@H]12 [Example 20] | < 100 nM | 203%
7 | CC[C@H]1[C@@H](O)[C@@H]2[C@H](CC[C@]3(C)[C@@H]([C@H](C)CCOC(=O)NC4CCCC4)CC[C@@H]23)[C@@]2(C)CC[C@@H](O)C[C@@H]12 [Example 134] | 100 to 1000 nM | 267%
8 | CC[C@H]1[C@@H](O)[C@@H]2[C@H](CC[C@]3(C)[C@@H]([C@H](C)CCOC(=O)N[C@@H]4CCC[C@@H]4O)CC[C@@H]23)[C@@]2(C)CC[C@@H](O)C[C@@H]12 [Example 206] | < 100 nM | 174%
9 | CC[C@H]1[C@@H](O)[C@@H]2[C@H](CC[C@]3(C)[C@@H]([C@H](C)CCCOC(=O)NS(=O)(=O)c4cccc(C(C)(C)C)c4)CC[C@@H]23)[C@@]2(C)CC[C@@H](O)C[C@@H]12 [Example 112] | 100 to 1000 nM | 123%
10 | CC[C@H]1[C@@H](O)[C@@H]2[C@H](CC[C@]3(C)[C@@H]([C@H](C)CCCOC(=O)NS(=O)(=O)C(C)(C)C)CC[C@@H]23)[C@@]2(C)CC[C@@H](O)C[C@@H]12 [Example 117] | 100 to 1000 nM | 365%
11 | CC[C@H]1[C@@H](O)[C@@H]2[C@H](CC[C@]3(C)[C@@H]([C@H](C)CCCOC(=O)NS(=O)(=O)C4CCCC4)CC[C@@H]23)[C@@]2(C)CC[C@@H](O)C[C@@H]12 [Example 120] | 100 to 1000 nM | 485%
12 | CC[C@H]1[C@@H](O)[C@@H]2[C@H](CC[C@]3(C)[C@@H]([C@H](C)COC(=O)NS(=O)(=O)c4ccc(-c5ncco5)cc4)CC[C@@H]23)[C@@]2(C)CC[C@@H](O)C[C@@H]12 [Example 44-p] | < 100 nM | 218%
13 | CC[C@H]1[C@@H](O)[C@@H]2[C@H](CC[C@]3(C)[C@@H]([C@H](C)CCOC(=O)N(CC)CC)CC[C@@H]23)[C@@]2(C)CC[C@@H](O)C[C@@H]12 [Example 163] | 100 to 1000 nM | 266%
14 | CC[C@H]1[C@@H](O)[C@@H]2[C@H](CC[C@]3(C)[C@@H]([C@H](C)CCOC(=O)N4CCC(N5CCCCC5)CC4)CC[C@@H]23)[C@@]2(C)CC[C@@H](O)C[C@@H]12 [Example 178] | 100 to 1000 nM | 196%
15 | CC[C@H]1[C@@H](O)[C@@H]2[C@H](CC[C@]3(C)[C@@H]([C@H](C)CCOC(=O)NS(=O)(=O)c4ncccn4)CC[C@@H]23)[C@@]2(C)CC[C@@H](O)C[C@@H]12 [Example 104-d] | 1000 to 10000 nM | 35%
16 | CC[C@H]1[C@@H](O)[C@@H]2[C@H](CC[C@]3(C)[C@@H]([C@H](C)CCOC(=O)NC(C)CO)CC[C@@H]23)[C@@]2(C)CC[C@@H](O)C[C@@H]12 (some centres unmarked) [Example 139] | 100 to 1000 nM | 310%
17 | CC[C@H]1[C@@H](O)[C@@H]2[C@H](CC[C@]3(C)[C@@H]([C@H](C)CCOC(=O)NS(=O)(=O)C(C)C)CC[C@@H]23)[C@@]2(C)CC[C@@H](O)C[C@@H]12 [Example 75] | < 100 nM | 386%
18 | CC[C@H]1[C@@H](O)[C@@H]2[C@H](CC[C@]3(C)[C@@H]([C@H](C)CCOC(=O)NCCN4CCOCC4)CC[C@@H]23)[C@@]2(C)CC[C@@H](O)C[C@@H]12 [Example 151] | 100 to 1000 nM | 253%
19 | CC[C@H]1[C@@H](O)[C@@H]2[C@H](CC[C@]3(C)[C@@H]([C@H](C)CCOC(=O)N4CCC(CO)CC4)CC[C@@H]23)[C@@]2(C)CC[C@@H](O)C[C@@H]12 [Example 202] | 100 to 1000 nM | 393%

Row | SMILES | EC50 | Emax
20 | CC[C@H]1[C@@H](O)[C@@H]2[C@H](CC[C@]3(C)[C@@H]([C@H](C)CCCOC(=O)N(C)C)CC[C@@H]23)[C@@]2(C)CC[C@@H](O)C[C@@H]12 [Example 128] | 1000 to 10000 nM | 138%
21 | CC[C@H]1[C@@H](O)[C@@H]2[C@H](CC[C@]3(C)[C@@H]([C@H](C)CCOC(=O)NS(=O)(=O)Cc4ccccc4)CC[C@@H]23)[C@@]2(C)CC[C@@H](O)C[C@@H]12 [Example 56] | < 100 nM | 326%
22 | CC[C@H]1[C@@H](O)[C@@H]2[C@H](CC[C@]3(C)[C@@H]([C@H](C)CCOC(=O)N4CCCCC4CO)CC[C@@H]23)[C@@]2(C)CC[C@@H](O)C[C@@H]12 (some centres unmarked) [Example 180] | 100 to 1000 nM | 390%
23 | CC[C@H]1[C@@H](O)[C@@H]2[C@H](CC[C@]3(C)[C@@H]([C@H](C)COC(=O)NS(=O)(=O)c4ccc(OC)cc4)CC[C@@H]23)[C@@]2(C)CC[C@@H](O)C[C@@H]12 [Example 44-k] | < 100 nM | 158%
24 | CC[C@H]1[C@@H](O)[C@@H]2[C@H](CC[C@]3(C)[C@@H]([C@H](C)CCCOC(=O)NS(C)(=O)=O)CC[C@@H]23)[C@@]2(C)CC[C@@H](O)C[C@@H]12 [Example 113] | 1000 to 10000 nM | 130%
25 | CC[C@H]1[C@@H](O)[C@@H]2[C@H](CC[C@]3(C)[C@@H]([C@H](C)COC(=O)N4CCCCC4)CC[C@@H]23)[C@@]2(C)CC[C@@H](O)C[C@@H]12 [Example 201] | 100 to 1000 nM | 1%
26 | CC[C@H]1[C@@H](O)[C@@H]2[C@H](CC[C@]3(C)[C@@H]([C@H](C)CCCOC(=O)NCc4ccccc4)CC[C@@H]23)[C@@]2(C)CC[C@@H](O)C[C@@H]12 [Example 124] | 100 to 1000 nM | 225%
27 | CC[C@H]1[C@@H](O)[C@@H]2[C@H](CC[C@]3(C)[C@@H]([C@H](C)CCOC(=O)NCCc4c[nH]c5ccccc45)CC[C@@H]23)[C@@]2(C)CC[C@@H](O)C[C@@H]12 [Example 141] | 100 to 1000 nM | 293%
28 | CC[C@H]1[C@@H](O)[C@@H]2[C@H](CC[C@]3(C)[C@@H]([C@H](C)COC(=O)N4CCC4)CC[C@@H]23)[C@@]2(C)CC[C@@H](O)C[C@@H]12 [Example 200] | 1000 to 10000 nM | 7%
29 | CC[C@H]1[C@@H](O)[C@@H]2[C@H](CC[C@]3(C)[C@@H]([C@H](C)CCCOC(=O)NC4CCCCC4)CC[C@@H]23)[C@@]2(C)CC[C@@H](O)C[C@@H]12 [Example 126] | 1000 to 10000 nM | 187%
30 | CC[C@H]1[C@@H](O)[C@@H]2[C@H](CC[C@]3(C)[C@@H]([C@H](C)CCOC(=O)NC(C)(C)C)CC[C@@H]23)[C@@]2(C)CC[C@@H](O)C[C@@H]12 [Example 192] | 1000 to 10000 nM | 186%
31 | CC[C@H]1[C@@H](O)[C@@H]2[C@H](CC[C@]3(C)[C@@H]([C@H](C)CCOC(=O)NCc4ccc(C(=O)O)cc4)CC[C@@H]23)[C@@]2(C)CC[C@@H](O)C[C@@H]12 [Example 159] | 100 to 1000 nM | 221%
32 | CC[C@H]1[C@@H](O)[C@@H]2[C@H](CC[C@]3(C)[C@@H]([C@H](C)CCOC(=O)Nc4ccc(C(C)(C)C)cc4)CC[C@@H]23)[C@@]2(C)CC[C@@H](O)C[C@@H]12 [Example 166] | 1000 to 10000 nM | 30%
33 | CC[C@H]1[C@@H](O)[C@@H]2[C@H](CC[C@]3(C)[C@@H]([C@H](C)COC(=O)NS(=O)(=O)c4ccc(-c5ccncc5)cc4)CC[C@@H]23)[C@@]2(C)CC[C@@H](O)C[C@@H]12 [Example 35] | 100 to 1000 nM | 152%
34 | CC[C@H]1[C@@H](O)[C@@H]2[C@H](CC[C@]3(C)[C@@H]([C@H](C)CCOC(=O)NS(=O)(=O)C(C)(C)C)CC[C@@H]23)[C@@]2(C)CC[C@@H](O)C[C@@H]12 [Example 48] | < 100 nM | 282%
35 | CC[C@H]1[C@@H](O)[C@@H]2[C@H](CC[C@]3(C)[C@@H]([C@H](C)COC(=O)NS(=O)(=O)c4ccc(-n5cncn5)nc4)CC[C@@H]23)[C@@]2(C)CC[C@@H](O)C[C@@H]12 [Example 44-l] | 100 to 1000 nM | 165%
36 | CC[C@H]1[C@@H](O)[C@@H]2[C@H](CC[C@]3(C)[C@@H]([C@H](C)COC(=O)NS(=O)(=O)C4CCCCC4)CC[C@@H]23)[C@@]2(C)CC[C@@H](O)C[C@@H]12 [Example 8] | 100 to 1000 nM | 327%
37 | CC[C@H]1[C@@H](O)[C@@H]2[C@H](CC[C@]3(C)[C@@H]([C@H](C)COC(=O)NS(=O)(=O)c4ccc(N5CCCCCC5)cc4)CC[C@@H]23)[C@@]2(C)CC[C@@H](O)C[C@@H]12 [Example 22] | < 100 nM | 262%
